Assay results as given in US10413583B2, “Synthetic substrates for enzymes that catalyze reactions of modified cysteines and related methods” (The University of Chicago, priority 2016, dated 2019).

System: HEPG2 cells
Assay: Epifluorescent imaging of DPP-5 and diacetyl rhodol in HepG2 cells (PalmB, ML348, ML349, palmitate)
Format: cell-based, human
Settings: for decrease in intensity of the signal from DPP-5: 10 μM inhibitor
Procedure: 250,000 HEK293T cells/well, 120,000 HeLa cells/well, or 100,000 HepG2 cells/well were plated in 700 μL DMEM glutamax (10% FBS+1% P/S) into 4-well chambered imaging dish (D35C4-20-1.5-N, Cellvis, Mountain View, Calif., United States of America), which were precoated with 5 μg Poly-D-lysine (30-70 KDa, Alfa Aesar, Haverhill, Mass., United States of America) for 2 h. After 20-24 h, the media was replaced by 1 μM Hoechst 33342 and DMSO/5 μM PalmB in 400 μL DMEM glutamax. After 30 min of incubation at 37° C., the cells were washed with 400 μL of Live Cell Imaging Solution and replaced by 1 μM DPP-5 with DMSO or 5 μM of PalmB in Live Cell Imaging Solution. After 20 min of incubation at 37° C., images were obtained on an inverted epifluorescence microscope (Olympus IX83; Olympus Corporation, Tokyo, Japan) attached with EMCCD camera (Photometrics EVOLVE™ Delta, Photometrics, Tucson, Ariz., United States of America) with 40× oil objective (N/A 1.3) for DPP-5 (excitation filter 500/20, dichroic chroma 89007, emission filter 535/30), Hoechst 33342 (excitation filter 402/15, emission filter 455/50, dichroic chroma 89013), and brightfield. Analyses were performed in ImageJ. For data analysis, the average fluorescence intensity per image in each experimental condition was obtained by selecting ROI in Brightfield and applying that to the corresponding DPP-5 image, average background fluorescence intensity was subtracted and data was normalized to the average fluorescence intensity of the DMSO control. Each experiment was repeated in at least two biological replicates with identical results.
16,000 HepG2 cells/well were plated in 100 μL DMEM glutamax (10% fetal bovine serum (FBS)) into 4 wells of a 96-well chambered imaging dish (P96-1-N, Cellvis, Mountain View Calif., United States of America), which were precoated with 0.7 μg Poly-D-lysine (30-70 KDa, Alfa Aesar, Haverhill, Mass., United States of America) for 2 hrs. After 24 h, cells were washed with Live Cell Imaging Solution and replaced by 1 μM Hoechst 33342 and DMSO/10 μM ML348/10 μM ML349/10 μM of both ML348 and ML349 in 100 μL DMEM glutamax. After 30 min of incubation at 37° C., the cells were washed with 100 μL of Live Cell Imaging Solution and replaced by 1 μM DPP-5 in Live Cell Imaging Solution. After 20 min of incubation at 37° C., images were obtained on an inverted epifluorescence microscope (Leica DMi8; Leica Microsystems, Wetzlar, Germany) equipped with a camera (Hamamatsu Orca-Flash 4.0; Hamamatsu, Hamamatsu City, Japan) with 63× oil objective (N/A 1.4) and light source (Sutter Lamda XL, 300 W Xenon; Sutter Instrument, Novato, Calif., United States of America) for DPP-5 (YFP filter cube 1525306), Hoechst 33342 (DAPI filter cube), and brightfield using Leica LASX software (Leica Microsystems, Wetzlar, Germany). Analyses were performed in ImageJ. Each experiment was repeated in three biological replicates and 8-12 images were considered for plotting bar graphs for quantification. For detailed data analysis, the average fluorescence intensity per image in each experimental condition was obtained by selecting ROI in Brightfield and applying that to the corresponding DPP-5 image, average background fluorescence intensity was subtracted and data was normalized to the average fluorescence intensity of the control experiment. […] 250,000 HEK293T cells/well were plated in 700 μL DMEM glutamax (10% FBS+1% P/S) into three wells of a 4-well chambered imaging dish (D35C4-20-1.5-N, Cellvis, Mountain View, Calif., United States of America), which were precoated with 5 μg Poly-Dlysine (30-70 KDa, Alfa Aesar, Haverhill, Mass., United States of America) for 2 h. After 18 h, the media was replaced by 1 μM Hoechst 33342 in 400 μL DMEM glutamax. […] After 20 min of incubation at 37° C., images were obtained and analyzed as described above. […]

SMILES: COc1ccc(N2CCN(C(=O)c3cc4c(s3)-c3ccccc3S(=O)(=O)C4)CC2)cc1 [ML349]
- decrease in intensity of the signal from DPP-5 (1 μM DPP-5): no change in signal

SMILES: CCCCCCCCCCCCCCCC(=O)SC[C@@H](C(=O)NC)N(C)C(=O)Oc1ccc2c(c1)Oc1cc(N3CCN(C(=O)CCC(=O)O)CC3)ccc1C21OC(=O)c2ccccc21 (some centres unmarked) [DPP-5]
- probe fluorescent signal in cells (1 μM probe for 20 minutes): robust intracellular fluorescent signal

SMILES: CCCCCCCCCC[C@@H]1C(=O)O[C@H]1CCc1ccc(OC)c(OC)c1 [PalmB, palmostatin B]
- turn-on response of DPP-5 blocked (5 μM PalmB pretreatment, 1 μM DPP-5): more than 95%
- effect on DPP-5 signal in palmitate experiment (1% BSA with or without 1 mM palmitate, 5 μM PalmB): reduces the intensity of the DPP-5 signal

SMILES: O=C(CN1CCN(C(=O)c2ccco2)CC1)Nc1cc(C(F)(F)F)ccc1Cl [ML348]
- decrease in intensity of the signal from DPP-5 (1 μM DPP-5): about 30%
